In patent publication US20090325871A1, “Role of the Mk2 Pathway in Wound Repair” (priority 2006, published 2009):
Entries after “also recorded” stand apart in the source; their conditions may differ.

Columns and labels:
Assay type in all cases: cell-based, mouse
[1] = test system: SRE promoter; assay: SRE-luciferase promoter-reporter assay in WT MEF; conditions: TGFβ 1 ng/mL
Description: (§1) For SRE promoter-reporter assays WT and MK2^−/− MEF, were transfected with the SRE.L-luciferase vector which contains two copies of SRE.L, a derivative of c-fos serum response element driving the expression of luciferase. The SRE.L vector was introduced alone in the case of WT MEF, and co-transfected with pMEpuro (a selection vector which confers resistance to puromycin to eukaryotic cells) in the case of MK2^−/− MEF. The vectors were introduced (5 μg of SRE.L, and 0.5 μg pMEpuro) into MEF using lipofectamine. Stable transfected WT MEF cell lines were obtained by selection with geneticin, and resistant colonies were isolated, expanded, and then screened for baseline luciferase activity. Since the MK2^−/− MEF were already resistant to geneticin, stable transfectants produced by co-transfection with pMEpuro were selected with puromycin, and resistant clones were isolated and expanded as above. The firefly luciferase activity was assayed using a kit from Promega (Madison, Wis.) according to the manufacturer's instructions. In brief, cells were lysed and the substrate (beetle luciferin) was added to the lysate. Next, chemiluminescence was measured using a luminometer.
Since smα induction by several agents including TGFβ has been reported to occur through activation of serum response elements (SRE) in the smα promoter, whether this activation occurs in WT MEF was tested.

[2] = test system: SRE promoter; assay: SRE-luciferase promoter-reporter assay in MK2−/− MEF; conditions: TGFβ 1 ng/mL
Description: as §1
Since MK2 has been reported to phosphorylate SRF, whether the effect of MK2 suppression on smα expression is due to its effect on the SRE promoter was tested. […]

[3] = test system: MK2−/− MEF; assay: smα mRNA level by semiquantitative RT-PCR in MK2−/− MEF; conditions: TGFβ 1 ng/mL for 24 hours
Description: (§2) Semiquantitative RT-PCR to measure mRNA in mouse MEF was used. In brief, RNA was isolated from treated or untreated MEF using the RNeasy kit (Qiagen, Valencia, Calif.) according to manufacturesr's instructions. The amount of RNA was determined spectrophotometrically, and equal amounts were used to generate cDNA by reverse transcription using the Superscript III system (Invitrogen, Carlsbad, Calif.) according to manufacturer's instructions. Next an equal volume of the cDNA was added to a master mix containing the following primers. For sma, the primers 5′-GCATCCACGAAACCACCTA-3′ and 5′-[…]-3′ were used to generate a 418 bp PCR product from mouse smooth muscle α-actin cDNA. For β-actin, the primers 5′-[…]-3′ and 5′-[…]-3′) were used to generate 348 bp product from mouseβ-actin cDNA. The primers 5′-[…]-3′ and 5′-[…]3′ were used to generate a 142 bp product from mouse procollagen type I alpha 1 cDNA. The PCR reaction was carried out as using a Bio-Rad I-cycler thermal cycler (Hercules, Calif.). […] After staining with ethidium bromide, photographs of the gels were taken, scanned, and the intensity of the bands was measured using UnScanIt software (Orem, Utah). The relative amount of smα and procollagen RNA was determined by dividing the intensity of their corresponding PCR product band by the intensity of the β-actin PCR product band.

[4] = test system: WT MEF; assay: procollagen type I α1 mRNA level by RT-PCR in WT MEF; conditions: TGFβ 1 ng/mL for 24 hours
Description: as §2

[5] = test system: MK2−/− MEF; assay: smα-actin protein level by Western blot in MK2−/− MEF; conditions: TGFβ 1 ng/mL for 24 hours
Description: (§3) Aliquots from the cell lysates prepared as described above were assayed for protein using the Bradford protein assay and then diluted with 2× Laemmli loading buffer for SDS-PAGE. Equal amounts of protein were then loaded in each well of 4-20% Tris/glycine gels. After electrophoresis for 90 min at 125 V constant voltage, the gel was blotted onto an Immobilon-P membrane by electrophoretic transfer at 25 V constant voltage overnight. The membrane was then washed, blocked with 5% milk, and probed with antibodies against MK2 (Cell Signaling, Beverly, Mass.) smα (Sigma, St. Louis, Mo.) or pan-actin (Santa Cruz, Santa Cruz, Calif.). The immunoreactive bands were visualized using a secondary antibody conjugated to horseradish peroxidase (Pierce, Rockford, Ill.).and a chemiluminescent substrate according to the manufacturer's instructions (SuperSignal, Pierce, Rockford, Ill.). The intensity of the bands was quantified using a UnScanIt software (Orem, Utah).
(§4) TGFβhas been implicated in the fibrotic response because of its ability to induce differentiation of fibroblasts into myofibroblasts. Whether TGFβ can induce myofibroblast differentiation in both WT MEF and MK2^−/− MEF was tested. Cells were growth arrested in serum free media for 24 hr then exposed to TGFβ (1 ng/mL).

[6] = test system: WT MEF; assay: smα-actin protein level by Western blot in WT MEF; conditions: TGFβ 1 ng/mL for 24 hours
Description: as §3, §4

[7] = test system: MK2−/− MEF; assay: procollagen type I α1 mRNA level by RT-PCR in MK2−/− MEF; conditions: TGFβ 1 ng/mL for 24 hours
Description: as §2

[8] = test system: WT MEF; assay: smα mRNA level by semiquantitative RT-PCR in WT MEF; conditions: TGFβ 1 ng/mL for 24 hours
Description: as §2

[9] = SB-203580 1 μM, measured at 6 hours
[10] = greatest after 6 hours, baseline by 24 hours

## C[S+]([O-])c1ccc(-c2nc(-c3ccncc3)c(-c3ccc(F)cc3)[nH]2)cc1 (stereo not shown) [SB-203580, reference compound]
[1]; [9]
  block of TGFβ activation of SRE-luciferase promoter: partially blocked
[2]; [9]
  block of TGFβ activation of SRE-luciferase promoter: completely blocked

## TGFβ
[1]; [10]
  SRE-luciferase promoter activity: SRE promoter activity increased; also recorded: caused activation
[3]
  smα mRNA level: significantly reduced; also recorded: significantly decreased
[2]; [10]
  SRE-luciferase promoter activity: SRE promoter activity increased; also recorded: caused activation
[4]
  procollagen type I α1 mRNA level: did not appear to alter
[5]
  smα-actin protein level: did not respond to TGFβ by increasing smα-actin; also recorded: produce even less smα
[6]
  smα-actin protein level: smα-actin level increased; also recorded: produce more sma
[7]
  procollagen type I α1 mRNA level: did not appear to alter; also recorded: did not suppress
[8]
  smα mRNA level: increased; also recorded: appeared to increase
